Among the data in patent US8431593B2, “Heteroaryl amide derivatives” (H. Lundbeck A/S, priority 2006, dated 2013) are IC50 values, retold here.

Where two headings read alike, the source gives them in different places. Bounds are passed on as bounds.

The target in the assay is T1, P2X7 receptor (Homo sapiens, UniProt Q99572).
T1 construct: host or cells: SH-SY5Y
T1 sequence (Q99572 1-595): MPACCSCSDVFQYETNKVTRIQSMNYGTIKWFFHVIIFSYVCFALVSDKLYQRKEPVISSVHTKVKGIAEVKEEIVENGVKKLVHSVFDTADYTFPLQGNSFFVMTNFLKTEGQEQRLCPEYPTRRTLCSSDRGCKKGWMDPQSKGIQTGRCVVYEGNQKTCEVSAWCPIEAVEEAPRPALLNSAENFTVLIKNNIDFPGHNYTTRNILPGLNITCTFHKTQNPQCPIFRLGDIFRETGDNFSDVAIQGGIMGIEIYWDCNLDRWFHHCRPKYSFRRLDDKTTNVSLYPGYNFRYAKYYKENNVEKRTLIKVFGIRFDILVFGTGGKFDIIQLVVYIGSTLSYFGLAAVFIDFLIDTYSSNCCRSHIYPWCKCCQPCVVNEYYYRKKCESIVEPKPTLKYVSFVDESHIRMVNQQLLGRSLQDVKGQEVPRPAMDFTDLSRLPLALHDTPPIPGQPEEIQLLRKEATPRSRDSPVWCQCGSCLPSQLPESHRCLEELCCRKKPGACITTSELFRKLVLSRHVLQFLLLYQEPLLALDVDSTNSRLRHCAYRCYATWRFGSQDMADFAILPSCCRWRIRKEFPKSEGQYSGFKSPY
The assay can be described thus: P2X7 calcium mobilization assay, high throughput, antagonist activity (Example 4A). The assay is classed as cell-based. An outline of the steps:
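Antagonism was measured as calcium mobilization on FLIPR^TETRA after a 1 h room-temperature compound preincubation of dye-loaded cells. Baseline from no-agonist wells was subtracted from each well's maximum RFU.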
Background: Calcium flux is commonly read through the fluorescence of an indicator in the cells.

[1] abbreviates: SH-SY5Y cells, 50% decrease in fluorescence response to 80 μM BzATP, read-out: IC50.

For orientation: IC50 means the point on the concentration scale where inhibition reaches its midpoint.

Consider `COC[C@H]1CCCN1C(=O)Cc1cn2c(C(=O)NCC34CC5CC(CC(C5)C3)C4)cccc2n1` [Compound 172, N-(adamantan-1-ylmethyl)-2-{2-[(2R)-2-(methoxymethyl)pyrrolidin-1-yl]-2-oxoethyl}imidazo[1,2-a]pyridine-5-carboxamide], for which the IC50 under setting [1] is below 2000 nM.

As to `CC(C)CN(C)C(=O)Cc1cn2c(C(=O)NCC34CC5CC(CC(C5)C3)C4)cccc2n1` [Compound 173, N-(adamantan-1-ylmethyl)-2-{2-[isobutyl(methyl)amino]-2-oxoethyl}imidazo[1,2-a]pyridine-5-carboxamide], under setting [1], the concentration for half-maximal inhibition (IC50) was below 2000 nM.

As for `O=C(NCC12CC3CC(CC(C3)C1)C2)c1cccc2nc(CC(=O)N3CCCC(C(F)(F)F)C3)cn12` (centres unmarked) [Compound 174, N-(adamantan-1-ylmethyl)-2-{2-oxo-2-[3-(trifluoromethyl)piperidin-1-yl]ethyl}imidazo[1,2-a]pyridine-5-carboxamide], under setting [1], the IC50 was below 2000 nM.

Turning to `CO[C@H]1CCN(C(=O)Cc2cn3c(C(=O)NCC45CC6CC(CC(C6)C4)C5)cccc3n2)C1` [Compound 175, N-(adamantan-1-ylmethyl)-2-{2-[(3S)-3-methoxypyrrolidin-1-yl]-2-oxoethyl}imidazo[1,2-a]pyridine-5-carboxamide], the IC50 under setting [1] was below 2000 nM.

On to `COCC1CCCN(C(=O)Cc2cn3c(C(=O)NCC45CC6CC(CC(C6)C4)C5)cccc3n2)C1` (centres unmarked) [Compound 176, N-(adamantan-1-ylmethyl)-2-{2-[3-(methoxymethyl)piperidin-1-yl]-2-oxoethyl}imidazo[1,2-a]pyridine-5-carboxamide], for which, under setting [1], the IC50 is below 2000 nM.

For the compound `COCC1CCCCN1C(=O)Cc1cn2c(C(=O)NCC34CC5CC(CC(C5)C3)C4)cccc2n1` (centres unmarked) [Compound 177, N-(adamantan-1-ylmethyl)-2-{2-[2-(methoxymethyl)piperidin-1-yl]-2-oxoethyl}imidazo[1,2-a]pyridine-5-carboxamide], the IC50 under setting [1] was below 2000 nM.

In the case of `COCCC1CCCN(C(=O)Cc2cn3c(C(=O)NCC45CC6CC(CC(C6)C4)C5)cccc3n2)C1` (centres unmarked) [Compound 178, N-(adamantan-1-ylmethyl)-2-{2-[3-(2-methoxyethyl)piperidin-1-yl]-2-oxoethyl}imidazo[1,2-a]pyridine-5-carboxamide], the concentration for half-maximal inhibition (IC50) under setting [1] was below 2000 nM.

`O=C(NCC12CC3CC(CC(C3)C1)C2)c1cccc2nc(CC(=O)N3CCN(C4CCC4)CC3)cn12` [Compound 179, N-(adamantan-1-ylmethyl)-2-[2-(4-cyclobutylpiperazin-1-yl)-2-oxoethyl]imidazo[1,2-a]pyridine-5-carboxamide]: the IC50 under setting [1] is below 2000 nM.

In the case of `O=C(NCC12CC3CC(CC(C3)C1)C2)c1cccc2nc(CC(=O)N3CCCC3)cn12` [Compound 180, N-(adamantan-1-ylmethyl)-2-(2-oxo-2-pyrrolidin-1-ylethyl)imidazo[1,2-a]pyridine-5-carboxamide], the concentration for half-maximal inhibition (IC50) under setting [1] is below 2000 nM.

Regarding `O=C(NCC12CC3CC(CC(C3)C1)C2)c1cccc2nc(CC(=O)N3CCCCC3)cn12` [Compound 181, N-(adamantan-1-ylmethyl)-2-(2-oxo-2-piperidin-1-ylethyl)imidazo[1,2-a]pyridine-5-carboxamide], under setting [1], the IC50 is below 2000 nM.

In the case of `O=C(NCC12CC3CC(CC(C3)C1)C2)c1cccc2nc(CC(=O)N3CCOCC3)cn12` [Compound 182, N-(adamantan-1-ylmethyl)-2-(2-morpholin-4-yl-2-oxoethyl)imidazo[1,2-a]pyridine-5-carboxamide], the 50% inhibitory concentration (IC50) under setting [1] was below 2000 nM.

`CCC(=O)NC1CCN(C(=O)Cc2cn3c(C(=O)NCC45CC6CC(CC(C6)C4)C5)cccc3n2)CC1` [Compound 183, N-(adamantan-1-ylmethyl)-2-{2-oxo-2-[4-(propionylamino)piperidin-1-yl]ethyl}imidazo[1,2-a]pyridine-5-carboxamide]: under setting [1], the 50% inhibitory concentration (IC50) was below 2000 nM.

Take `CC(C)C(=O)NC1CCN(C(=O)Cc2cn3c(C(=O)NCC45CC6CC(CC(C6)C4)C5)cccc3n2)CC1` [Compound 184, N-(adamantan-1-ylmethyl)-2-{2-[4-(isobutyrylamino)piperidin-1-yl]-2-oxoethyl}imidazo[1,2-a]pyridine-5-carboxamide]: under setting [1], the IC50 is below 2000 nM.

Take `CC1(C)CCCN(C(=O)Cc2cn3c(C(=O)NCC45CC6CC(CC(C6)C4)C5)cccc3n2)C1` [Compound 185, N-(adamantan-1-ylmethyl)-2-[2-(3,3-dimethylpiperidin-1-yl)-2-oxoethyl]imidazo[1,2-a]pyridine-5-carboxamide]: under setting [1], the half-maximal inhibitory concentration (IC50) was below 2000 nM.

As for `CCCN(C)C(=O)Cc1cn2c(C(=O)NCC34CC5CC(CC(C5)C3)C4)cccc2n1` [Compound 186, N-(adamantan-1-ylmethyl)-2-{2-[methyl(propyl)amino]-2-oxoethyl}imidazo[1,2-a]pyridine-5-carboxamide], the 50% inhibitory concentration (IC50) under setting [1] is below 2000 nM.

`O=C(NCC12CC3CC(CC(C3)C1)C2)c1cccc2nc(CC(=O)N3CCC4(CC3)OCCO4)cn12` [Compound 187, N-(adamantan-1-ylmethyl)-2-[2-(1,4-dioxa-8-azaspiro[4.5]dec-8-yl)-2-oxoethyl]imidazo[1,2-a]pyridine-5-carboxamide]: the IC50 was below 2000 nM.

Consider `N[C@H]1CCN(Cc2cn3c(C(=O)NCC45CC6CC(CC(C6)C4)C5)cccc3n2)C1` [Compound 188, N-(adamantan-1-ylmethyl)-2-{[(3S)-3-aminopyrrolidin-1-yl]methyl}imidazo[1,2-a]pyridine-5-carboxamide], for which the IC50 under setting [1] was below 2000 nM.

On to `CCOC(=O)C1CCCN(Cc2cn3c(C(=O)NCC45CC6CC(CC(C6)C4)C5)cccc3n2)C1` (centres unmarked) [Compound 189, ethyl 1-({5-[(adamantan-1-ylmethyl)carbamoyl]imi-dazo[1,2-a]pyridin-2-yl}methyl)piperidine-3-carboxylate], for which the 50% inhibitory concentration (IC50) was below 2000 nM.

Take `O=C(NCC12CC3CC(CC(C3)C1)C2)c1cccc2nc(COC3CCNC3)cn12` (centres unmarked) [Compound 190, N-(adamantan-1-ylmethyl)-2-[(pyrrolidin-3-yloxy)methyl]imidazo[1,2-a]pyridine-5-carboxamide]: under setting [1], the IC50 is below 2000 nM.

Consider `O=C(NCC12CC3CC(CC(C3)C1)C2)c1cccc2nc(CN3CCCC(C(=O)O)C3)cn12` (centres unmarked) [Compound 191, 1-({5-[(adamantan-1-ylmethyl)carbamoyl]imi-dazo[1,2-a]pyridin-2-yl}methyl)piperidine-3-carboxylic acid], for which the IC50 is below 2000 nM.

Turning to `O=C(NCC12CC3CC(CC(C3)C1)C2)c1cccc2nc(CC(=O)N3C[C@@H]4C[C@H]3CN4)cn12` [Compound 192, N-(adamantan-1-ylmethyl)-2-{2-[(1S,4S)-2,5-diazabicyclo[2.2.1]hept-2-yl]-2-oxoethyl}imidazo[1,2-a]pyridine-5-carboxamide], the IC50 under setting [1] was below 2000 nM.

As for `CS(=O)(=O)NCCc1cn2c(C(=O)NCC34CC5CC(CC(C5)C3)C4)cccc2n1` [Compound 193, N-(adamantan-1-ylmethyl)-2-{2-[(methylsulfonyl)amino]eth-yl}imidazo[1,2-a]pyridine-5-carboxamide], under setting [1], the IC50 is below 2000 nM.

As to `CCS(=O)(=O)NCCc1cn2c(C(=O)NCC34CC5CC(CC(C5)C3)C4)cccc2n1` [Compound 194, N-(adamantan-1-ylmethyl)-2-{2-[(ethylsulfonyl)amino]eth-yl}imidazo[1,2-a]pyridine-5-carboxamide], the IC50 under setting [1] is below 2000 nM.

Take `CC(=O)c1cn2c(C(=O)NCC34CC5CC(CC(C5)C3)C4)cccc2n1` [Compound 196, 2-acetyl-N-(adamantan-1-ylmethyl)imidazo[1,2-a]pyridine-5-carboxamide]: the IC50 under setting [1] was below 2000 nM.

Consider `O=C(NCC12CC3CC(CC(C3)C1)C2)c1cccc2nc(CN3CC[C@@H](N(CCO)CCO)C3)cn12` [Compound 197, N-(adamantan-1-ylmethyl)-2-({(3R)-3-[bis(2-hydroxy-ethyl)amino]pyrrolidin-1-yl}methyl)imidazo[1,2-a]pyridine-5-carboxamide], for which, under setting [1], the IC50 is below 2000 nM.

For the compound `O=C(NCC12CC3CC(CC(C3)C1)C2)c1cccc2nc(CN3CC[C@@H](NCCO)C3)cn12` [Compound 198, N-(adamantan-1-ylmethyl)-2-({(3R)-3-[(2-hydroxy-ethyl)amino]pyrrolidin-1-yl}methyl)imidazo[1,2-a]pyridine-5-carboxamide], the IC50 under setting [1] is below 2000 nM.

`O=C(NCC12CC3CC(CC(C3)C1)C2)c1cccc2nc(Cn3cnc(CO)c3)cn12` [Compound 199, N-(adamantan-1-ylmethyl)-2-{[4-(hydroxymethyl)-1H-imidazol-1-yl]methyl}imidazo[1,2-a]pyridine-5-carboxamide]: under setting [1], the 50% inhibitory concentration (IC50) is below 2000 nM.

For `O=C(NCC12CC3CC(CC(C3)C1)C2)c1cccc2nc(Cn3cncc3CO)cn12` [Compound 200, N-(adamantan-1-ylmethyl)-2-{[5-(hydroxymethyl)-1H-imidazol-1-yl]methyl}imidazo[1,2-a]pyridine-5-carboxamide], the IC50 under setting [1] was below 2000 nM.

`CCC(=O)NCCc1cn2c(C(=O)NCC34CC5CC(CC(C5)C3)C4)cccc2n1` [Compound 201, N-(adamantan-1-ylmethyl)-2-[2-(propionylamino)eth-yl]imidazo[1,2-a]pyridine-5-carboxamide]: the 50% inhibitory concentration (IC50) under setting [1] is below 2000 nM.
